Measured values as given in the CheMixHub viscosity set.
± gives the uncertainty stated by the source.

Assay: xn = mol fraction of the nth substance listed

## N[C@@H](Cc1c[nH]cn1)C(=O)O + O
293.15 K, 101 kPa, x1 = 0.005413
  viscosity: 1.128 ± 0.027 mPa·s
298.15 K, 100 kPa, x1 = 0.000193
  viscosity: 0.8927 ± 0.035 mPa·s
298.15 K, 100 kPa, x1 = 0.00027
  viscosity: 0.898 ± 0.06 mPa·s
298.15 K, 100 kPa, x1 = 0.00036
  viscosity: 0.899 ± 0.011 mPa·s
298.15 K, 100 kPa, x1 = 0.000403
  viscosity: 0.895 ± 0.035 mPa·s
298.15 K, 100 kPa, x1 = 0.00063
  viscosity: 0.904 ± 0.06 mPa·s
298.15 K, 100 kPa, x1 = 0.00072
  viscosity: 0.907 ± 0.011 mPa·s
298.15 K, 100 kPa, x1 = 0.00074
  viscosity: 0.8987 ± 0.035 mPa·s
298.15 K, 100 kPa, x1 = 0.00081
  viscosity: 0.907 ± 0.06 mPa·s
298.15 K, 100 kPa, x1 = 0.00099
  viscosity: 0.91 ± 0.06 mPa·s
298.15 K, 100 kPa, x1 = 0.00117
  viscosity: 0.913 ± 0.06 mPa·s
298.15 K, 100 kPa, x1 = 0.00171
  viscosity: 0.921 ± 0.061 mPa·s
298.15 K, 100 kPa, x1 = 0.001798
  viscosity: 0.9349 ± 0.012 mPa·s
298.15 K, 100 kPa, x1 = 0.0018
  viscosity: 0.927 ± 0.011 mPa·s
298.15 K, 100 kPa, x1 = 0.002157
  viscosity: 0.9434 ± 0.012 mPa·s
298.15 K, 100 kPa, x1 = 0.002516
  viscosity: 0.9518 ± 0.012 mPa·s
298.15 K, 100 kPa, x1 = 0.002876
  viscosity: 0.9604 ± 0.012 mPa·s
298.15 K, 101 kPa, x1 = 0.00027
  viscosity: 0.898 ± 0.021 mPa·s
298.15 K, 101 kPa, x1 = 0.00063
  viscosity: 0.9034 ± 0.021 mPa·s
298.15 K, 101 kPa, x1 = 0.0013
  viscosity: 0.9127 ± 0.021 mPa·s
298.15 K, 101 kPa, x1 = 0.00207
  viscosity: 0.9208 ± 0.021 mPa·s
298.15 K, 101.3 kPa, x1 = 0.0004504
  viscosity: 0.898 ± 0.08 mPa·s
298.15 K, 101.3 kPa, x1 = 0.0008971
  viscosity: 0.903 ± 0.08 mPa·s
298.15 K, 101.3 kPa, x1 = 0.001791
  viscosity: 0.913 ± 0.08 mPa·s
298.15 K, 101.3 kPa, x1 = 0.002688
  viscosity: 0.924 ± 0.08 mPa·s
303.15 K, 100 kPa, x1 = 0.00036
  viscosity: 0.804 ± 0.01 mPa·s
303.15 K, 100 kPa, x1 = 0.00045
  viscosity: 0.807 ± 0.06 mPa·s
303.15 K, 100 kPa, x1 = 0.00054
  viscosity: 0.807 ± 0.01 mPa·s
303.15 K, 100 kPa, x1 = 0.00108
  viscosity: 0.817 ± 0.01 mPa·s
303.15 K, 100 kPa, x1 = 0.00126
  viscosity: 0.821 ± 0.01 mPa·s
303.15 K, 100 kPa, x1 = 0.00144
  viscosity: 0.827 ± 0.01 mPa·s
303.15 K, 100 kPa, x1 = 0.00153
  viscosity: 0.824 ± 0.06 mPa·s
303.15 K, 100 kPa, x1 = 0.00162
  viscosity: 0.827 ± 0.01 mPa·s
303.15 K, 100 kPa, x1 = 0.002157
  viscosity: 0.8407 ± 0.01 mPa·s
303.15 K, 100 kPa, x1 = 0.002516
  viscosity: 0.8474 ± 0.01 mPa·s
303.15 K, 100 kPa, x1 = 0.002876
  viscosity: 0.8544 ± 0.011 mPa·s
303.15 K, 101 kPa, x1 = 0.00027
  viscosity: 0.8035 ± 0.021 mPa·s
303.15 K, 101 kPa, x1 = 0.00063
  viscosity: 0.8079 ± 0.021 mPa·s
303.15 K, 101 kPa, x1 = 0.0013
  viscosity: 0.8152 ± 0.021 mPa·s
303.15 K, 101 kPa, x1 = 0.00243
  viscosity: 0.8255 ± 0.021 mPa·s
303.15 K, 101 kPa, x1 = 0.003563
  viscosity: 0.8636 ± 0.021 mPa·s
303.15 K, 101 kPa, x1 = 0.005413
  viscosity: 0.8992 ± 0.021 mPa·s
303.15 K, 101.3 kPa, x1 = 0.0004504
  viscosity: 0.804 ± 0.08 mPa·s
303.15 K, 101.3 kPa, x1 = 0.002239
  viscosity: 0.824 ± 0.08 mPa·s
308.15 K, 100 kPa, x1 = 0.00027
  viscosity: 0.727 ± 0.06 mPa·s
308.15 K, 100 kPa, x1 = 0.00054
  viscosity: 0.727 ± 0.009 mPa·s
308.15 K, 100 kPa, x1 = 0.00135
  viscosity: 0.743 ± 0.06 mPa·s
308.15 K, 100 kPa, x1 = 0.00143
  viscosity: 0.74 ± 0.009 mPa·s
308.15 K, 100 kPa, x1 = 0.00144
  viscosity: 0.7434 ± 0.0092 mPa·s
308.15 K, 100 kPa, x1 = 0.00171
  viscosity: 0.748 ± 0.06 mPa·s
308.15 K, 100 kPa, x1 = 0.002157
  viscosity: 0.7543 ± 0.0093 mPa·s
308.15 K, 100 kPa, x1 = 0.002516
  viscosity: 0.7596 ± 0.0094 mPa·s
308.15 K, 100 kPa, x1 = 0.002876
  viscosity: 0.7651 ± 0.0095 mPa·s
308.15 K, 101 kPa, x1 = 0.00027
  viscosity: 0.724 ± 0.021 mPa·s
308.15 K, 101 kPa, x1 = 0.00063
  viscosity: 0.7274 ± 0.021 mPa·s
308.15 K, 101 kPa, x1 = 0.00099
  viscosity: 0.7304 ± 0.021 mPa·s
308.15 K, 101 kPa, x1 = 0.0013
  viscosity: 0.7334 ± 0.021 mPa·s
308.15 K, 101 kPa, x1 = 0.00243
  viscosity: 0.7421 ± 0.021 mPa·s
308.15 K, 101.3 kPa, x1 = 0.0004504
  viscosity: 0.723 ± 0.08 mPa·s
308.15 K, 101.3 kPa, x1 = 0.0008971
  viscosity: 0.728 ± 0.08 mPa·s
308.15 K, 101.3 kPa, x1 = 0.001346
  viscosity: 0.733 ± 0.08 mPa·s
308.15 K, 101.3 kPa, x1 = 0.002239
  viscosity: 0.743 ± 0.08 mPa·s
308.15 K, 101.3 kPa, x1 = 0.002688
  viscosity: 0.748 ± 0.08 mPa·s
313.15 K, 100 kPa, x1 = 0.000358
  viscosity: 0.6589 ± 0.0082 mPa·s
313.15 K, 100 kPa, x1 = 0.00036
  viscosity: 0.657 ± 0.008 mPa·s
313.15 K, 100 kPa, x1 = 0.00099
  viscosity: 0.672 ± 0.06 mPa·s
313.15 K, 100 kPa, x1 = 0.00171
  viscosity: 0.682 ± 0.06 mPa·s
313.15 K, 100 kPa, x1 = 0.001798
  viscosity: 0.6769 ± 0.0084 mPa·s
313.15 K, 100 kPa, x1 = 0.002516
  viscosity: 0.6853 ± 0.0085 mPa·s
313.15 K, 100 kPa, x1 = 0.002876
  viscosity: 0.6895 ± 0.0085 mPa·s
313.15 K, 101 kPa, x1 = 0.00027
  viscosity: 0.6566 ± 0.02 mPa·s
313.15 K, 101 kPa, x1 = 0.00063
  viscosity: 0.6592 ± 0.02 mPa·s
313.15 K, 101 kPa, x1 = 0.00092
  viscosity: 0.6773 ± 0.016 mPa·s
313.15 K, 101 kPa, x1 = 0.00243
  viscosity: 0.6716 ± 0.02 mPa·s
313.15 K, 101 kPa, x1 = 0.003563
  viscosity: 0.7141 ± 0.017 mPa·s
313.15 K, 101.3 kPa, x1 = 0.0004504
  viscosity: 0.657 ± 0.08 mPa·s
313.15 K, 101.3 kPa, x1 = 0.001791
  viscosity: 0.672 ± 0.08 mPa·s
313.15 K, 101.3 kPa, x1 = 0.002239
  viscosity: 0.677 ± 0.08 mPa·s
313.15 K, 101.3 kPa, x1 = 0.002688
  viscosity: 0.682 ± 0.08 mPa·s
318.15 K, 100 kPa, x1 = 0.00027
  viscosity: 0.603 ± 0.06 mPa·s
318.15 K, 100 kPa, x1 = 0.000358
  viscosity: 0.6026 ± 0.0075 mPa·s
318.15 K, 100 kPa, x1 = 0.000718
  viscosity: 0.6065 ± 0.0075 mPa·s
318.15 K, 100 kPa, x1 = 0.00099
  viscosity: 0.614 ± 0.06 mPa·s
318.15 K, 100 kPa, x1 = 0.00108
  viscosity: 0.61 ± 0.0076 mPa·s
318.15 K, 100 kPa, x1 = 0.00117
  viscosity: 0.616 ± 0.06 mPa·s
318.15 K, 100 kPa, x1 = 0.00135
  viscosity: 0.618 ± 0.06 mPa·s
318.15 K, 100 kPa, x1 = 0.00144
  viscosity: 0.6135 ± 0.0076 mPa·s
318.15 K, 100 kPa, x1 = 0.00171
  viscosity: 0.623 ± 0.06 mPa·s
318.15 K, 100 kPa, x1 = 0.002157
  viscosity: 0.62 ± 0.0077 mPa·s
318.15 K, 100 kPa, x1 = 0.002516
  viscosity: 0.6232 ± 0.0077 mPa·s
318.15 K, 100 kPa, x1 = 0.002876
  viscosity: 0.6262 ± 0.0078 mPa·s
318.15 K, 101.3 kPa, x1 = 0.0004504
  viscosity: 0.598 ± 0.08 mPa·s
318.15 K, 101.3 kPa, x1 = 0.0008971
  viscosity: 0.603 ± 0.08 mPa·s
318.15 K, 101.3 kPa, x1 = 0.001791
  viscosity: 0.613 ± 0.08 mPa·s
318.15 K, 101.3 kPa, x1 = 0.002239
  viscosity: 0.618 ± 0.08 mPa·s
318.15 K, 101.3 kPa, x1 = 0.002688
  viscosity: 0.623 ± 0.08 mPa·s
323.15 K, 101 kPa, x1 = 0.00092
  viscosity: 0.5791 ± 0.014 mPa·s
323.15 K, 101 kPa, x1 = 0.001804
  viscosity: 0.5862 ± 0.014 mPa·s
323.15 K, 101 kPa, x1 = 0.003563
  viscosity: 0.6075 ± 0.014 mPa·s
323.15 K, 101 kPa, x1 = 0.005413
  viscosity: 0.6374 ± 0.015 mPa·s
